Reference: patent US10167295B2 (priority 2013, dated 2019)
“Also recorded” adds a separate entry of the source. Counter-ions that a name gives are not always drawn. Like-named read-outs stand apart in the source and are kept apart here.

How the values were obtained:
[1] = tested on: patients with post-operative pain; experiment: Clinical studies of analgesia in patients with post-operative pain; type: in vivo, human; details: for sex difference in analgesia: women vs men, post-operative pain (FIG. 8, 9)
[2] = molecular target: T1, σ2 receptor (Homo sapiens, UniProt Q5BJF2); type: binding; details: for inhibition at 10 µM: read-out: Inhibition (%) Sigma2 (σ2)
T1 construct: MDS Pharma Services (contract laboratory that ran the assay)
T1 sequence (Q5BJF2 whole entry, species assumed): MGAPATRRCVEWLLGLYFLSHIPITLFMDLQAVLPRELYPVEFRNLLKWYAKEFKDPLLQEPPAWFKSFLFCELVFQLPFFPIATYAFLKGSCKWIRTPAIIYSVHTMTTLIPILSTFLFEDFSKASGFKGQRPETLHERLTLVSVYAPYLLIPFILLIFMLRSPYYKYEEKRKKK

[3] = tested on: patients with post-operative pain; details: cited from earlier work; for analgesia in earlier clinical studies (in words): patients with post-operative pain, literature of the applicants
[4] = molecular target: T2, NOP (Homo sapiens, UniProt P41146); type: binding; design: MDS Pharma Services (contract laboratory that ran the assay); details: for binding to the NOP receptor (in words): 10 μM; for inhibition at 10 µM: read-out: Inhibition (%) Nociceptin/orphanin F/Q (NOP)
T2 sequence (P41146 whole entry): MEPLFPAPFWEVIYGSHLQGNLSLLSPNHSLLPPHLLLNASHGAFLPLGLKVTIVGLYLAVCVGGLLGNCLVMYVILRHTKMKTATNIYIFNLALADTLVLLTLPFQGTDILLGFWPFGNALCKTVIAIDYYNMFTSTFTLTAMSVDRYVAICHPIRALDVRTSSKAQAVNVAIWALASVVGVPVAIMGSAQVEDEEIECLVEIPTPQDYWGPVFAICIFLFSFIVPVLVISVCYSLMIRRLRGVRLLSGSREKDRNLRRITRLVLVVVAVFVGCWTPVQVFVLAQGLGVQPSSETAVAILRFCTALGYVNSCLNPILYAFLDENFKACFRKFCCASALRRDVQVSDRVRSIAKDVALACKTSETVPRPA

[5] = molecular target: T3, DOR (Homo sapiens, UniProt P41143); experiment: biochemical; type: binding
T3 sequence (P41143 whole entry): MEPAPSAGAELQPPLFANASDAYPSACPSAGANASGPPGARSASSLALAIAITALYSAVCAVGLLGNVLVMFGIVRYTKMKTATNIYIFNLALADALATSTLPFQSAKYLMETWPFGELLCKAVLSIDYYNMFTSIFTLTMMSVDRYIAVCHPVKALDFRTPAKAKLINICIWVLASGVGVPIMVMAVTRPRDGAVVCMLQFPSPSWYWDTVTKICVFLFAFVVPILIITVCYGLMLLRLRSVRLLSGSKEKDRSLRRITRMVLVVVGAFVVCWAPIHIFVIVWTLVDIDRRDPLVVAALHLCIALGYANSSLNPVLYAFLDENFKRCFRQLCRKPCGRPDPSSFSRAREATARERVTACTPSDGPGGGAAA

[6] = molecular target: KOR (Homo sapiens, UniProt P41145); experiment: biochemical; type: binding
KOR, sequence (P41145 whole entry): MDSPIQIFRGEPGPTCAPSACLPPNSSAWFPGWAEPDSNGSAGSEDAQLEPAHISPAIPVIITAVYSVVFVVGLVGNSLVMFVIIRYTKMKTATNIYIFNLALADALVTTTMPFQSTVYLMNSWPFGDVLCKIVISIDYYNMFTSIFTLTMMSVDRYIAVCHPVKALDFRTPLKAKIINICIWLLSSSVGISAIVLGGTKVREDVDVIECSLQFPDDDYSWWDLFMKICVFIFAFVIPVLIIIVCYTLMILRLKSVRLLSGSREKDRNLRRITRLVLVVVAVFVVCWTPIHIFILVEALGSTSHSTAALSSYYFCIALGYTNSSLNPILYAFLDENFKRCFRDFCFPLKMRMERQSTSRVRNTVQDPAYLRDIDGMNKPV

[7] = molecular target: T4, MOR (Homo sapiens, UniProt P35372); experiment: biochemical; type: binding
T4 sequence (P35372 whole entry): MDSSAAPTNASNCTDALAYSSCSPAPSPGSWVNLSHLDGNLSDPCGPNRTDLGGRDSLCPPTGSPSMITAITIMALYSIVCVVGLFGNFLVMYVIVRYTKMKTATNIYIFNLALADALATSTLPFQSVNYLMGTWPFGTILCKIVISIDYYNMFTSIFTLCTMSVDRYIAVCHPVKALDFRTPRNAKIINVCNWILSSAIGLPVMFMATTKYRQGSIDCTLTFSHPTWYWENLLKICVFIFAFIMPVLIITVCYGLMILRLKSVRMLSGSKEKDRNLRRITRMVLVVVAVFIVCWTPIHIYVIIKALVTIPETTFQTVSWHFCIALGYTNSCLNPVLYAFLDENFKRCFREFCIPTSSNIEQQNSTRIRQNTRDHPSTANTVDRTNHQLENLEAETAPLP

[8] = molecular target: T3, DOR; experiment: biochemical; type: binding; remark: listed apart in the source
[9] = molecular target: T4, MOR; experiment: biochemical; type: binding; remark: listed apart in the source
[10] = molecular target: T2, NOP; type: cell-based

Oc1ccc2c(c1)[C@@]13CCCC[C@@]1(O)[C@@H](C2)N(CC1CCC1)CC3 [Butorphanol]
sex difference in analgesia [1]: significantly great analgesia in women than in men; also recorded: significantly greater analgesia in females than in males

Oc1ccc2c3c1O[C@H]1[C@@H](O)CC[C@@]4(O)[C@@H](C2)N(CC2CCC2)CC[C@]314 [Nalbuphine, Nalbuphine hydrochloride]
inhibition at 10 µM [2]: 15% | sex difference in analgesia ([1]; hydrochloride): significantly greater analgesia in females than in males | sex difference in analgesia ([1]; listed as nalbuphine, hydrochloride): significantly great analgesia in women than in men | time by which men reported increasing pain (anti-analgesia) ([3]; men, placebo controlled study (Gear 1999)): ~90 min | analgesia in earlier clinical studies (in words) [3]: worse pain than those receiving placebo | binding to the NOP receptor (in words) ([4]; hydrochloride): binds to NOP receptors | inhibition at 10 µM [4]: 12%

C=CCN1CC[C@]23c4c5ccc(O)c4O[C@H]2C(=O)CC[C@@]3(O)[C@H]1C5 [Naloxone, naloxone hydrochloride]
binding to the σ2 receptor (in words) ([2]; 10 μM): does not bind to the σ2 receptor | inhibition at 10 µM [2]: -2% | effect on nalbuphine anti-analgesia in males ([1]; naloxone 0.4 mg in combination with nalbuphine, men (FIG. 10 left)): abolished the anti-analgesic effect of nalbuphine in males resulting in significant analgesia | effect on nalbuphine analgesia in females ([1]; naloxone 0.4 mg in combination with nalbuphine, women (FIG. 10 right)): enhanced nalbuphine analgesia in females | analgesia in earlier clinical studies (in words) [3]: blocks anti-analgesia and produces enhanced and prolonged analgesia

CC(C)=CCN1CCC2(C)c3cc(O)ccc3CC1C2C.CC(O)C(=O)O (centres unmarked) [Pentazocine, Pentazocine lactate]
inhibition at 10 µM [2]: 81% | sex difference in analgesia [1]: significantly great analgesia in women than in men; also recorded: significant difference in analgesia experience by females and males | binding to the NOP receptor (in words) [4]: binds to NOP receptors | inhibition at 10 µM [4]: 24%

NCC(CC(=O)O)c1ccc(Cl)cc1 (centres unmarked) [baclofen]
effect on the analgesic effect of pentazocine ([3]; oral, from three days prior to surgery, pentazocine 30 mg i.v. (Gordon 1995)): not significantly different from that of placebo

CN(C)CCCN1c2ccccc2Sc2ccc(Cl)cc21 [chlorpromazine]
analgesia in earlier clinical studies (in words) [3]: enhanced the analgesic effect of nalbuphine

CN(C(=O)/C=C/c1ccoc1)[C@@H]1CCC2(O)C3Cc4ccc(O)c5c4[C@@]2(CCN3CC2CC2)[C@H]1O5 (some centres unmarked) [compound 27035, TRK-820 HCl]
DOR [5]: 95 | inhibition at 10 µM ([5]; read-out: DOR mean % inhibition): 95.3% | KOR [6]: 91 | inhibition at 10 µM ([6]; read-out: KOR mean % inhibition): 90.5% | MOR [7]: 94 | inhibition at 10 µM ([7]; read-out: MOR mean % inhibition): 93.8% | Ki [8]: 42 nM | Ki [9]: 1.1 nM | NOP Tango Agonist [10]: 3.5

O=C(CCCN1CCC(O)(c2ccc(Cl)cc2)CC1)c1ccc(F)cc1 [haloperidol]
analgesia in earlier clinical studies (in words) [3]: enhanced the analgesic effect of nalbuphine
